Measurements published in patent US10842152B2, “Isothiazolo-based bicycles, processes for their preparation and their use as herbicides and/or plant growth regulators” (Bayer CropScience Aktiengesellschaft, priority 2017, dated 2020).

Experiments:
MATIN [1] = test: Herbicidal effect pre-emergence; type: in vivo, Matricaria inodora; settings: 320 g/ha, visual grading after ca. 3 weeks vs untreated controls
Excerpt: Seeds of mono- and dicotyledonous weed plants and crop plants are sown in wood-fiber pots in sandy loam and covered with soil. The compounds according to the invention, formulated in the form of wettable powders (WP) or as emulsifiable concentrates (EC), are then applied to the surface of the covering soil as aqueous suspension or emulsion, with the addition of 0.5% of an additive, at an application rate of 600 l of water/ha (converted).
Following treatment, the pots are placed in a greenhouse and kept under optimum growth conditions for the test plants. The visual grading of the damage to the test plants is carried out after ca. 3 weeks in comparison to untreated controls (herbicidal effect in percent (%): 100% effect=plants have died off, 0% effect=as control plants).

Setaria viridis [2] = test: Herbicidal effect pre-emergence; type: in vivo; settings: 320 g/ha, visual grading after ca. 3 weeks vs untreated controls
Outline: (§1)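 Pre-emergence: WP or EC formulations applied as aqueous suspension/emulsion with 0.5% additive at 600 l water/ha onto covering soil of freshly sown pots in sandy loam. Greenhouse under optimum conditions; visual damage scored after ca. 3 weeks versus untreated controls (100% = plants died, 0% = as control).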

Viola tricolor [3] = test: Herbicidal effect pre-emergence; type: in vivo; settings: 320 g/ha, visual grading after ca. 3 weeks vs untreated controls
Outline: as §1

Amaranthus retroflexus [4] = test: Herbicidal effect pre-emergence; type: in vivo; settings: 320 g/ha, visual grading after ca. 3 weeks vs untreated controls
Outline: as §1

Stellaria media [5] = test: Herbicidal effect pre-emergence; type: in vivo; settings: 320 g/ha, visual grading after ca. 3 weeks vs untreated controls
Outline: as §1

Alopecurus myosuroides = test: Herbicidal effect pre-emergence; type: in vivo; settings: 320 g/ha, visual grading after ca. 3 weeks vs untreated controls
Outline: as §1

Setaria viridis [6] = test: Herbicidal effect post-emergence; type: in vivo; settings: 320 g/ha
Outline: (§2)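 Greenhouse plants in sandy loam sprayed post-emergence at single-leaf stage (2-3 weeks after sowing) with WP or EC formulations plus 0.5% additive at 600 l water/ha. Damage scored visually after ca. 3 weeks versus untreated controls, 0% (as control) to 100% (dead).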

Viola tricolor [7] = test: Herbicidal effect post-emergence; type: in vivo; settings: 320 g/ha
Outline: as §2

Amaranthus retroflexus [8] = test: Herbicidal effect post-emergence; type: in vivo; settings: 320 g/ha
Outline: as §2

Abutilon theophrasti = test: Herbicidal effect post-emergence; type: in vivo; settings: 320 g/ha, visual grading after ca. 3 weeks (Table 8)
Outline: as §2

Meloidogyne incognita = Meloidogyne incognita test; type: in vivo; settings: application rate 20 ppm, after 14 days, salad seedlings
Experimental: Solvent: 125.0 parts by weight of acetone
To produce a suitable preparation of active compound, 1 part by weight of active compound is mixed with the stated amount of solvent, and the concentrate is diluted with water to the desired concentration.
Vessels are filled with sand, a solution of the active ingredient, a suspension containing eggs and larvae of the southern root-knot nematode (Meloidogyne incognita) and salad seeds. The salad seeds germinate and the seedlings grow. Galls develop in the roots.
After 14 days the nematicidal activity is determined on the basis of the percentage of gall formation. 100% means no galls were found and 0% means the number of galls found on the roots of the treated plants was equal to that in untreated control plants.

MATIN [9] = test: Herbicidal effect post-emergence; type: in vivo, Matricaria inodora; settings: 320 g/ha, visual grading after ca. 3 weeks (Table 7)
Excerpt: Seeds of mono- and dicotyledonous weed plants and crop plants are sown in wood-fiber pots in sandy loam, covered with soil and grown in a greenhouse under controlled growth conditions. 2 to 3 weeks after sowing, the test plants are sprayed in the single-leaf stage. The compounds according to the invention, formulated in form of wettable powders (WP) or as emulsifiable concentrates (EC), are then sprayed onto the green plant parts as aqueous suspension or emulsion, with the addition of 0.5% of an additive, at an application rate of 600 l of water/ha (converted). After the test plants had been in the greenhouse for ca. 3 weeks under optimum growth conditions, the effect of the preparations is assessed visually in comparison with untreated controls (herbicidal effect in percent (%): 100% effect=plants have died off, 0% effect=as control plants).

[10] = tested on: Polygonum convolvulus (=Fallopia convolvulus); test: Herbicidal effect post-emergence; type: in vivo; settings: 320 g/ha, visual grading after ca. 3 weeks (Table 7)
Outline: as §2

Pharbitis purpurea = test: Herbicidal effect post-emergence; type: in vivo; settings: 320 g/ha, visual grading after ca. 3 weeks (Table 7)
Outline: as §2

Stellaria media [11] = test: Herbicidal effect post-emergence; type: in vivo; settings: 320 g/ha, visual grading after ca. 3 weeks (Table 7)
Outline: as §2

[12] = visual grading after ca. 3 weeks (Table 8)
[13] = visual grading after ca. 3 weeks (Table 9)
[14] = visual grading after ca. 3 weeks (Table 7)

Compound | herbicidal effect MATIN (MATIN [1]) [%] | herbicidal effect SETVI (Setaria viridis [2]) [%] | herbicidal effect VIOTR (Viola tricolor [3]) [%] | herbicidal effect AMARE (Amaranthus retroflexus [4]) [%] | herbicidal effect STEME (Stellaria media [5]) [%] | herbicidal effect ALOMY (Alopecurus myosuroides) [%] | herbicidal effect SETVI (Setaria viridis [6]; [12]) [%] | herbicidal effect VIOTR (Viola tricolor [7]; [12]) [%] | herbicidal effect AMARE (Amaranthus retroflexus [8]; [12]) [%] | herbicidal effect ABUTH (Abutilon theophrasti) [%] | nematicidal activity (gall formation) (Meloidogyne incognita) [%] | herbicidal effect MATIN (MATIN [9]) [%] | herbicidal effect SETVI (Setaria viridis [6]; [14]) [%] | herbicidal effect POLCO [10] [%] | herbicidal effect PHBPU (Pharbitis purpurea) [%] | herbicidal effect VIOTR (Viola tricolor [7]; [14]) [%] | herbicidal effect AMARE (Amaranthus retroflexus [8]; [14]) [%] | herbicidal effect STEME (Stellaria media [11]) [%] | further results
CCC(=O)Nc1nsc2c(=O)n(CC3CCCCC3Cl)cc(Cl)c12 (racemic) [Example I-172] | 100 | 100 | 100 | 100 | 100 | 100 | 80 | 100 | 100 | 100 | – | – | – | – | – | – | – | – | –
Nc1nsc2c(=O)n(CC3CCCCC3)c(COC3CCCCO3)cc12 (stereo not shown) [Example I-038] | – | – | – | – | – | – | – | – | – | – | 90 | – | – | – | – | – | – | – | –
CCC(=O)OCC1Cc2c(N)nsc2C(=O)N1CC1CCCCC1 (stereo not shown) [Example I-039] | – | 100 | 100 | 100 | – | – | 100 | 100 | 100 | 100 | – | – | – | – | – | – | – | – | –
CCC(=O)N(C(=O)CC)c1nsc2c(=O)n(CC3CCCCC3)c(COC3CCCCO3)cc12 (stereo not shown) [Example I-042] | – | – | – | – | – | – | – | – | – | – | 90 | – | – | – | – | – | – | – | herbicidal effect SETVI (Setaria viridis [6]; [13]): 90%; herbicidal effect VIOTR (Viola tricolor [7]; [13]): 100%; herbicidal effect AMARE (Amaranthus retroflexus [8]; [13]): 100%
CCC(=O)N(C(=O)CC)c1nsc2c(=O)n(CC3CCCCC3)c(CO)cc12 [Example I-049] | 80 | 100 | 90 | 100 | 100 | 80 | – | – | – | – | 90 | – | – | – | – | – | – | – | herbicidal effect SETVI (Setaria viridis [6]; [13]): 100%; herbicidal effect VIOTR (Viola tricolor [7]; [13]): 100%; herbicidal effect AMARE (Amaranthus retroflexus [8]; [13]): 90%
CC(C)Cc1cc2c(N)nsc2c(=O)n1CC1CCCCC1 [Example I-050] | – | – | – | – | – | – | – | – | – | – | 90 | – | – | – | – | – | – | – | –
Nc1nsc2c(=O)n(CC3CCCCC3)cc(Cl)c12 [Example I-064] | 100 | 100 | 100 | 100 | 100 | 100 | – | – | – | – | – | 100 | 100 | 100 | 100 | 100 | 100 | 100 | –
CCC(=O)Nc1nsc2c(=O)n(CC3CCCCC3)cc(Cl)c12 [Example I-083] | 100 | 100 | 100 | 100 | 100 | 100 | 100 | 100 | 100 | 80 | – | – | – | – | – | – | – | – | –
O=C(Nc1nsc2c(=O)n(CC3CCCCC3)cc(F)c12)C(F)(F)C(F)(F)F [Example I-127] | 100 | 100 | 100 | 100 | 100 | 100 | – | – | – | – | – | 100 | 100 | 100 | 100 | 100 | 100 | 100 | –
CCC(=O)Nc1nsc2c(=O)n(CC3CCCCC3)cc(F)c12 [Example I-128] | 100 | 100 | 100 | 100 | 100 | 100 | – | – | – | – | – | 100 | 100 | 100 | 100 | 100 | 100 | 100 | –
Nc1nsc2c(=O)n(Cc3cc(F)c(F)cc3F)cc(Cl)c12 [Example I-136] | 90 | 100 | 100 | 100 | 100 | 100 | – | – | – | – | – | 100 | 90 | 100 | 100 | 100 | 100 | 100 | –
Nc1nsc2c(=O)n(Cc3cc(F)c(F)cc3F)cc(F)c12 [Example I-163] | 100 | 100 | 100 | 100 | 100 | 100 | 90 | 90 | 100 | 90 | – | – | – | – | – | – | – | – | –
O=C(Nc1nsc2c(=O)n(Cc3cc(F)c(F)cc3F)cc(F)c12)C(F)F [Example I-165] | 100 | 100 | 100 | 100 | 100 | 100 | – | – | – | – | – | 100 | 90 | 100 | 80 | 100 | 100 | 100 | –
